Assay results as given in PubChem BioAssay (NCI).
Several values for one entry are separate records, joined by “and”; a condition that tells them apart may be missing. Equal values may be shown once.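 Step 1: Grow cells in 96-well plates. Step 2: Expose to compound for 48 hours at 5 concentrations. Step 3: Interpolate endpoints linearly; if unreached, use highest concentration. Abbreviation: GI50, concentration required for 50% inhibition of growth. The concentration for full growth arrest is given as TGI.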

tested on: EKVX NSCLC; assay: NCI tumour cell line growth inhibition, 48 h

| SMILES | GI50 | TGI |
| --- | --- | --- |
| O=C(Nc1ccccc1)c1c(O)[nH]c(=S)[nH]c1=O | 120 µM | 103 µM and > 250 µM |
| OC1CSSC1Cn1cnc2c(Nc3ccc(OCc4cccc(F)c4)c(Cl)c3)ncnc21 (stereo not drawn) | 0.603 µM | 2.35 µM |
| COc1cnc2c(c1)C(=O)c1c-2n(CCCN2CCOCC2)c(=O)c2cc(F)ccc12 | 0.482 µM | > 100 µM |
| COc1cccc(-c2cc(-c3cccc(NS(C)(=O)=O)c3)nc(N)c2C#N)c1O | 0.561 µM | > 100 µM |
| NC(N)=NS(=O)(=O)c1ccc(Nc2c3ccccc3nc3c(C(=O)NCCO)cccc23)cc1 | 25.7 µM | – |
| COc1cccc(C2c3cc4c(cc3OC(C)(N3CCCC3)C2C)OCO4)c1O (stereo not drawn) | – | > 91.6 µM |
| COc1cc(/C=N\NC(=O)CN2CCN(c3cc4c(cc3F)c(=O)c(C(=O)N/N=C/c3cc(OC)c(OC)c(OC)c3)cn4C3CC3)CC2)cc(OC)c1OC | – | > 100 µM |
| OCCN(CCO)c1ncnc2c1ncn2Cc1ccc(CCl)cc1 | 16.6 µM | 31.8 µM |
| Cc1ccc2c(C)c3c(ccc4ccccc43)c[n+]2c1 | 0.775 µM | > 100 µM |
| Cc1ccc(CN2CCC(C(=O)Nc3ccc(-c4cc5ccccc5[nH]4)cc3)CC2)o1 | > 100 µM | > 100 µM |
| C=CC(=O)Nc1cc(Nc2ncc(C(=O)OC(C)C)c(-c3cn(C)c4ccccc34)n2)c(OC)cc1N(C)CCN(C)C | 0.0181 µM | 13.6 µM |
| O=C(Nc1ccc(F)cc1)Nc1ccc(Cl)c([N+](=O)[O-])c1 | 2.79 µM | 11 µM |
| Fc1[nH]nc2ccc([C@@H]3Nc4ccc5[nH]ncc5c4[C@H]4C5CCC(C5)[C@@H]34)cc12 (stereo partly drawn) | 2.39 µM | 17.4 µM |
| Nc1ccccc1C#C/C=C\C#Cc1ccccc1OC(F)(F)F | 9.16 µM | 58.7 µM |
| Cc1ccc(NC(=O)Nc2ccc(-c3cccnc3)cc2N2CCC(CO)CC2)cc1 | 3.42 µM | > 100 µM |
| Cc1cnc(NCCCN(C)C)c2c1[nH]c1ccc3cc(O)ccc3c12 | – | 4.34 µM |
| Fc1ccc(NC(=S)SCc2ccc3c(c2)OCO3)cc1F | – | 34.1 µM |

tested on: HCC-2998 colon; assay: NCI tumour cell line growth inhibition, 48 h

| SMILES | GI50 | TGI |
| --- | --- | --- |
| O=C(Nc1ccccc1)c1c(O)[nH]c(=S)[nH]c1=O | 95.3 µM | 120 µM and > 250 µM |
| OC1CSSC1Cn1cnc2c(Nc3ccc(OCc4cccc(F)c4)c(Cl)c3)ncnc21 (stereo not drawn) | 0.952 µM | 3.49 µM |
| COc1cnc2c(c1)C(=O)c1c-2n(CCCN2CCOCC2)c(=O)c2cc(F)ccc12 | 2.75 µM | > 100 µM |
| COc1cccc(-c2cc(-c3cccc(NS(C)(=O)=O)c3)nc(N)c2C#N)c1O | 0.328 µM | > 27.1 µM |
| NC(N)=NS(=O)(=O)c1ccc(Nc2c3ccccc3nc3c(C(=O)NCCO)cccc23)cc1 | 0.0928 µM | – |
| COc1cccc(C2c3cc4c(cc3OC(C)(N3CCCC3)C2C)OCO4)c1O (stereo not drawn) | – | 25.6 µM |
| COc1cc(/C=N\NC(=O)CN2CCN(c3cc4c(cc3F)c(=O)c(C(=O)N/N=C/c3cc(OC)c(OC)c(OC)c3)cn4C3CC3)CC2)cc(OC)c1OC | 0.178 µM | 0.33 µM |
| OCCN(CCO)c1ncnc2c1ncn2Cc1ccc(CCl)cc1 | 15.4 µM | 28.9 µM |
| Cc1ccc2c(C)c3c(ccc4ccccc43)c[n+]2c1 | 8.06 µM | 25.5 µM |
| Cc1ccc(CN2CCC(C(=O)Nc3ccc(-c4cc5ccccc5[nH]4)cc3)CC2)o1 | > 100 µM | > 100 µM |
| C=CC(=O)Nc1cc(Nc2ncc(C(=O)OC(C)C)c(-c3cn(C)c4ccccc34)n2)c(OC)cc1N(C)CCN(C)C | 2.3 µM | 7.75 µM |
| O=C(Nc1ccc(F)cc1)Nc1ccc(Cl)c([N+](=O)[O-])c1 | 3.71 µM | 14.3 µM |
| Fc1[nH]nc2ccc([C@@H]3Nc4ccc5[nH]ncc5c4[C@H]4C5CCC(C5)[C@@H]34)cc12 (stereo partly drawn) | 3.14 µM | 12.8 µM |
| Nc1ccccc1C#C/C=C\C#Cc1ccccc1OC(F)(F)F | 2.93 µM | 14.7 µM |
| Cc1ccc(NC(=O)Nc2ccc(-c3cccnc3)cc2N2CCC(CO)CC2)cc1 | 3.21 µM | > 100 µM |
| Cc1cnc(NCCCN(C)C)c2c1[nH]c1ccc3cc(O)ccc3c12 | – | 1.98 µM |
| Fc1ccc(NC(=S)SCc2ccc3c(c2)OCO3)cc1F | – | 71.5 µM |

tested on: K-562 leukemia; assay: NCI tumour cell line growth inhibition, 48 h

| SMILES | GI50 | TGI |
| --- | --- | --- |
| O=C(Nc1ccccc1)c1c(O)[nH]c(=S)[nH]c1=O | 85.3 µM | 114 µM and > 250 µM |
| OC1CSSC1Cn1cnc2c(Nc3ccc(OCc4cccc(F)c4)c(Cl)c3)ncnc21 (stereo not drawn) | 0.604 µM | 1.5 µM |
| COc1cnc2c(c1)C(=O)c1c-2n(CCCN2CCOCC2)c(=O)c2cc(F)ccc12 | 0.32 µM | > 100 µM |
| COc1cccc(-c2cc(-c3cccc(NS(C)(=O)=O)c3)nc(N)c2C#N)c1O | 0.0508 µM | > 100 µM |
| NC(N)=NS(=O)(=O)c1ccc(Nc2c3ccccc3nc3c(C(=O)NCCO)cccc23)cc1 | 35.1 µM | – |
| COc1cccc(C2c3cc4c(cc3OC(C)(N3CCCC3)C2C)OCO4)c1O (stereo not drawn) | – | 18.3 µM |
| COc1cc(/C=N\NC(=O)CN2CCN(c3cc4c(cc3F)c(=O)c(C(=O)N/N=C/c3cc(OC)c(OC)c(OC)c3)cn4C3CC3)CC2)cc(OC)c1OC | 0.363 µM | > 100 µM |
| OCCN(CCO)c1ncnc2c1ncn2Cc1ccc(CCl)cc1 | 17.7 µM | > 100 µM |
| Cc1ccc2c(C)c3c(ccc4ccccc43)c[n+]2c1 | 9.3 µM | 47.3 µM |
| Cc1ccc(CN2CCC(C(=O)Nc3ccc(-c4cc5ccccc5[nH]4)cc3)CC2)o1 | > 100 µM | > 100 µM |
| C=CC(=O)Nc1cc(Nc2ncc(C(=O)OC(C)C)c(-c3cn(C)c4ccccc34)n2)c(OC)cc1N(C)CCN(C)C | 2.22 µM | > 23.4 µM |
| O=C(Nc1ccc(F)cc1)Nc1ccc(Cl)c([N+](=O)[O-])c1 | 3.2 µM | > 100 µM |
| Fc1[nH]nc2ccc([C@@H]3Nc4ccc5[nH]ncc5c4[C@H]4C5CCC(C5)[C@@H]34)cc12 (stereo partly drawn) | 0.324 µM | 13.9 µM |
| Nc1ccccc1C#C/C=C\C#Cc1ccccc1OC(F)(F)F | 2.31 µM | > 100 µM |
| Cc1ccc(NC(=O)Nc2ccc(-c3cccnc3)cc2N2CCC(CO)CC2)cc1 | 2.19 µM | > 100 µM |
| Cc1cnc(NCCCN(C)C)c2c1[nH]c1ccc3cc(O)ccc3c12 | – | 3.68 µM |
| Fc1ccc(NC(=S)SCc2ccc3c(c2)OCO3)cc1F | – | 59 µM |

tested on: LOX IMVI melanoma; assay: NCI tumour cell line growth inhibition, 48 h

| SMILES | GI50 | TGI |
| --- | --- | --- |
| O=C(Nc1ccccc1)c1c(O)[nH]c(=S)[nH]c1=O | 54 µM | 73.6 µM and > 250 µM |
| OC1CSSC1Cn1cnc2c(Nc3ccc(OCc4cccc(F)c4)c(Cl)c3)ncnc21 (stereo not drawn) | 0.121 µM | 0.499 µM |
| COc1cnc2c(c1)C(=O)c1c-2n(CCCN2CCOCC2)c(=O)c2cc(F)ccc12 | 0.161 µM | 0.387 µM |
| COc1cccc(-c2cc(-c3cccc(NS(C)(=O)=O)c3)nc(N)c2C#N)c1O | 0.136 µM | > 100 µM |
| NC(N)=NS(=O)(=O)c1ccc(Nc2c3ccccc3nc3c(C(=O)NCCO)cccc23)cc1 | 28 µM | – |
| COc1cccc(C2c3cc4c(cc3OC(C)(N3CCCC3)C2C)OCO4)c1O (stereo not drawn) | – | 19.2 µM |
| COc1cc(/C=N\NC(=O)CN2CCN(c3cc4c(cc3F)c(=O)c(C(=O)N/N=C/c3cc(OC)c(OC)c(OC)c3)cn4C3CC3)CC2)cc(OC)c1OC | 0.176 µM | 0.343 µM |
| OCCN(CCO)c1ncnc2c1ncn2Cc1ccc(CCl)cc1 | 16.4 µM | 30.9 µM |
| Cc1ccc2c(C)c3c(ccc4ccccc43)c[n+]2c1 | 17.3 µM | 53.6 µM |
| Cc1ccc(CN2CCC(C(=O)Nc3ccc(-c4cc5ccccc5[nH]4)cc3)CC2)o1 | > 100 µM | > 100 µM |
| C=CC(=O)Nc1cc(Nc2ncc(C(=O)OC(C)C)c(-c3cn(C)c4ccccc34)n2)c(OC)cc1N(C)CCN(C)C | 1.76 µM | 3.53 µM |
| O=C(Nc1ccc(F)cc1)Nc1ccc(Cl)c([N+](=O)[O-])c1 | 3.51 µM | 12.2 µM |
| Fc1[nH]nc2ccc([C@@H]3Nc4ccc5[nH]ncc5c4[C@H]4C5CCC(C5)[C@@H]34)cc12 (stereo partly drawn) | 0.768 µM | 14 µM |
| Nc1ccccc1C#C/C=C\C#Cc1ccccc1OC(F)(F)F | 7.85 µM | 27 µM |
| Cc1ccc(NC(=O)Nc2ccc(-c3cccnc3)cc2N2CCC(CO)CC2)cc1 | 3.6 µM | > 100 µM |
| Cc1cnc(NCCCN(C)C)c2c1[nH]c1ccc3cc(O)ccc3c12 | – | 1.37 µM |
| Fc1ccc(NC(=S)SCc2ccc3c(c2)OCO3)cc1F | – | 28.6 µM |

tested on: MALME-3M melanoma; assay: NCI tumour cell line growth inhibition, 48 h

| SMILES | GI50 | TGI |
| --- | --- | --- |
| O=C(Nc1ccccc1)c1c(O)[nH]c(=S)[nH]c1=O | 58.5 µM | 96.6 µM and > 250 µM |
| OC1CSSC1Cn1cnc2c(Nc3ccc(OCc4cccc(F)c4)c(Cl)c3)ncnc21 (stereo not drawn) | 2.52 µM | 10.6 µM |
| COc1cnc2c(c1)C(=O)c1c-2n(CCCN2CCOCC2)c(=O)c2cc(F)ccc12 | 0.503 µM | 3.42 µM |
| COc1cccc(-c2cc(-c3cccc(NS(C)(=O)=O)c3)nc(N)c2C#N)c1O | 0.0465 µM | 93.4 µM |
| NC(N)=NS(=O)(=O)c1ccc(Nc2c3ccccc3nc3c(C(=O)NCCO)cccc23)cc1 | 16.7 µM | – |
| COc1cccc(C2c3cc4c(cc3OC(C)(N3CCCC3)C2C)OCO4)c1O (stereo not drawn) | – | 42.3 µM |
| COc1cc(/C=N\NC(=O)CN2CCN(c3cc4c(cc3F)c(=O)c(C(=O)N/N=C/c3cc(OC)c(OC)c(OC)c3)cn4C3CC3)CC2)cc(OC)c1OC | 0.235 µM | 0.712 µM |
| OCCN(CCO)c1ncnc2c1ncn2Cc1ccc(CCl)cc1 | 12.8 µM | 27.3 µM |
| Cc1ccc2c(C)c3c(ccc4ccccc43)c[n+]2c1 | 1.96 µM | 5.69 µM |
| Cc1ccc(CN2CCC(C(=O)Nc3ccc(-c4cc5ccccc5[nH]4)cc3)CC2)o1 | > 100 µM | > 100 µM |
| C=CC(=O)Nc1cc(Nc2ncc(C(=O)OC(C)C)c(-c3cn(C)c4ccccc34)n2)c(OC)cc1N(C)CCN(C)C | 1.69 µM | 3.24 µM |
| O=C(Nc1ccc(F)cc1)Nc1ccc(Cl)c([N+](=O)[O-])c1 | 2.37 µM | 7.2 µM |
| Fc1[nH]nc2ccc([C@@H]3Nc4ccc5[nH]ncc5c4[C@H]4C5CCC(C5)[C@@H]34)cc12 (stereo partly drawn) | 11.6 µM | 26 µM |
| Nc1ccccc1C#C/C=C\C#Cc1ccccc1OC(F)(F)F | 11.4 µM | 38.1 µM |
| Cc1ccc(NC(=O)Nc2ccc(-c3cccnc3)cc2N2CCC(CO)CC2)cc1 | 3.07 µM | > 100 µM |
| Cc1cnc(NCCCN(C)C)c2c1[nH]c1ccc3cc(O)ccc3c12 | – | 2.2 µM |
